Data: patent US7410975B2, “Small molecule toll-like receptor (TLR) antagonists” (Coley Pharmaceutical Group, Inc., priority 2003, dated 2008)
Counter-ions that a name gives are not always drawn.

These molecules were tested against T1, human TLR8 (hTLR8) (Homo sapiens, UniProt Q9NR97) (assay: Antagonist screen, hTLR8-NFκB-293 cells, NF-κB-luciferase reporter, with EC50 of R848). Settings: compound at 0.5, 5, 50 μg/ml; EC50 concentration of R848; 16 h; NF-κB-luciferase.
T1 construct: expressed in transfected cells
T1 sequence (Q9NR97 27-1041): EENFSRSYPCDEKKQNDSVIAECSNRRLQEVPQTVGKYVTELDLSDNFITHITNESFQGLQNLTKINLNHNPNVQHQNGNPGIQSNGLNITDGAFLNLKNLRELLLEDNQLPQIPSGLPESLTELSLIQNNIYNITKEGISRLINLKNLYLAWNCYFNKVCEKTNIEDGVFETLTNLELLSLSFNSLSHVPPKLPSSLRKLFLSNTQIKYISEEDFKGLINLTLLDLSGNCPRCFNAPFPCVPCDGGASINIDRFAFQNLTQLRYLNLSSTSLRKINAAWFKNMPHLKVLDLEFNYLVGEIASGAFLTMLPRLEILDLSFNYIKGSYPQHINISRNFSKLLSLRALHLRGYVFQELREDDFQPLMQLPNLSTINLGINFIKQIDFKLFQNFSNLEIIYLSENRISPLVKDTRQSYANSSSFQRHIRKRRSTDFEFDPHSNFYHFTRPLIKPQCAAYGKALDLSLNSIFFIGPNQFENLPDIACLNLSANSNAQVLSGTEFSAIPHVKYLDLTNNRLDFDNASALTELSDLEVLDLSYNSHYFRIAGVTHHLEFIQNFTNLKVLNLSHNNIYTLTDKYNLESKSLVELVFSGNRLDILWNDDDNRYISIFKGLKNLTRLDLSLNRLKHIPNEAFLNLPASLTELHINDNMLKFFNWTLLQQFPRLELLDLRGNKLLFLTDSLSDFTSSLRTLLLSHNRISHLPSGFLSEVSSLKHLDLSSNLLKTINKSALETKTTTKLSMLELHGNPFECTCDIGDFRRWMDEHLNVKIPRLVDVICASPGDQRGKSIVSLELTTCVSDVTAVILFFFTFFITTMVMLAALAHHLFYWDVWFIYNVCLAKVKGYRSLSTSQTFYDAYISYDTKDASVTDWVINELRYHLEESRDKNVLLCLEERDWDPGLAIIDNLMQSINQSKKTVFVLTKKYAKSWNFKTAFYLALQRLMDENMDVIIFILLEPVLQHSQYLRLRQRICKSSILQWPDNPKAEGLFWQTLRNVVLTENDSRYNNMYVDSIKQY
Type: cell-based
Procedure: The method is described in greater detail as follows. The cells for each individual cell clone (hTLR3-NFκB-293, hTLR7-NFκB-293, hTLR8-NFκB-293 and hTLR9-NFκB-293) were counted and seeded one day before the stimulation at 1.5×10^4 cells per well in 96-well cell culture plates. To become adherent the cells were incubated after seeding overnight at 37° C. in 5% CO2 humidified air.
The screen for each compound was performed at the same time for all of the receptors TLR3, TLR7, TLR8 and TLR9. Up to fifteen test compounds, each assayed in duplicate at each of three different final concentrations (0.5 μg/ml, 5 μg/ml, and 50 μg/ml), were used for 16 h cell stimulation on a single multiwell culture plate. A 4× final concentration master plate was created to prepare the different test compounds before they were added to the cells.
Controls were added as duplicates individually for each cell clone on the cell culture plate. Positive controls were used as follows (final concentrations): 50 μg/ml poly(I:C) for hTLR3-NFκB-293; 8 μM resiquimod (R848) for hTLR7-NFκB-293; 30 μM R848 for hTLR8-NFκB-293; and 2.5 μM CpG-ODN 2006 for hTLR9-NFκB-293. Media alone was used as negative control. After addition of controls and small molecules, the cell clones were additionally stimulated with the EC50 concentration of the appropriate receptor-specific ligand.
The mean value of wells H2 and H5 (each with cells and EC50 concentration of the appropriate receptor-specific ligand) divided by the mean of wells H3 and H6 (each with cells alone) yielded the baseline response (i.e., fold induction of luciferase activity) to EC50 concentration of the appropriate receptor-specific ligand.
After 16 h stimulation the supernatant was removed and the cells treated with lysis buffer and stored at −80° C. before measuring.
For each screen result a graphical documentation was performed.
The baseline result (measured with addition of the EC50 concentration of the receptor-specific ligand) for each cell culture plate was measured as described above. Antagonistic effects were measured by down regulation compared to the baseline. Antagonists were scored as follows: • 13: compounds for which there was clear down regulation at 0.5 μg/ml, 5 μg/ml, and 50 μg/ml; • 12: compounds for which there was clear down regulation at 5 μg/ml and 50 μg/ml; • 11: compounds for which there was clear down regulation only at 50 μg/ml; • —: compounds for which there was no clear down regulation even at 50 μg/ml. Agonists
Results were expressed as fold induction over baseline luciferase activity measured in the absence of R848. […] Additional screening was performed in like manner using additional small molecules selected from another library or specifically prepared for this purpose. Scoring is reported as above but as applied to TLR8.

Q: How did the “hTLR8 (inhibitory effect, antagonist score)” value turn out when C=CCc1ccccc1OC1(c2ccccc2)OC(=O)c2ccccc21 (centres unmarked) [compound 957] was run?
A: The value was “— (compounds for which there was no clear down regulation even at 50 μg/ml)”.

Q: Which “hTLR8 (inhibitory effect, antagonist score)” value does the source give for NC(=O)c1cccc2c1-c1ccccc1C2 [compound 1132] here?
A: Its value is 11 (compounds for which there was clear down regulation only at 50 μg/ml).

Q: How did the “hTLR8 (inhibitory effect, antagonist score)” value turn out when CN1CCC2C(C1)c1ccccc1N2Cc1ccccc1 (centres unmarked) [compound 455, Mebhydroline 1,5 naphtalenedisulfonate] was run?
A: Its value is “— (compounds for which there was no clear down regulation even at 50 μg/ml)”.

Q: Which “hTLR8 (inhibitory effect, antagonist score)” value does the source give for CN(C)CCCN1c2ccccc2Sc2ccc(Cl)cc21.Cl [compound 64, Chlorpromazinehydrochloride] here?
A: The value was 11 (compounds for which there was clear down regulation only at 50 μg/ml).

Q: Which “hTLR8 (inhibitory effect, antagonist score)” value does the source give for CN1Cc2c(N)cccc2C(c2ccccc2)C1.O=C(O)/C=C\C(=O)O (centres unmarked) [compound 108, Nomifensine maleate] here?
A: The value was “— (compounds for which there was no clear down regulation even at 50 μg/ml)”.

Q: Which “hTLR8 (inhibitory effect, antagonist score)” value does the source give for O=C(c1cccc2c1-c1ccccc1/C2=N\O)N1CCCCC1 [compound 1050] here?
A: Its value is 11 (compounds for which there was clear down regulation only at 50 μg/ml).

Q: With CS(=O)(=O)O.OC(CCN1CCCCC1)(c1ccccc1)c1ccccc1 [compound 799, Pridinolmethanesulfonate salt] as the molecule, how does the “hTLR8 (inhibitory effect, antagonist score)” value read?
A: Its value is “— (compounds for which there was no clear down regulation even at 50 μg/ml)”.

Q: For Flunarizinehydrochloride [compound 312], which “hTLR8 (inhibitory effect, antagonist score)” value is on record?
A: The value was “— (compounds for which there was no clear down regulation even at 50 μg/ml)”.

Q: How did the “hTLR8 (inhibitory effect, antagonist score)” value turn out when OCc1cc2c(cn1)[nH]c1ccccc12 [compound 878, 3-hydroxymethyl-beta-carboline] was run?
A: Its value is “— (compounds for which there was no clear down regulation even at 50 μg/ml)”.

Q: How did the “hTLR8 (inhibitory effect, antagonist score)” value turn out when O=C(O)c1ccc(C2(c3ccc(C(=O)O)cc3)OC(=O)c3ccccc32)cc1 [compound 970] was run?
A: The value was “— (compounds for which there was no clear down regulation even at 50 μg/ml)”.

Q: CNCCCN1c2ccccc2CCc2ccccc21.Cl [compound 343, Desipraminehydrochloride] was tested. Which “hTLR8 (inhibitory effect, antagonist score)” value did it give?
A: The value was 11 (compounds for which there was clear down regulation only at 50 μg/ml).

Q: Which “hTLR8 (inhibitory effect, antagonist score)” value does the source give for CCN(CC)CCCN(CC(=O)C1c2ccc(Cl)cc2NC(=O)c2ccccc21)C(=O)c1ccccc1 (centres unmarked) [compound 1013] here?
A: Its value is “— (compounds for which there was no clear down regulation even at 50 μg/ml)”.

Q: Which “hTLR8 (inhibitory effect, antagonist score)” value does the source give for Clc1ccccc1C(c1ccccc1)(c1ccccc1)n1ccnc1 [compound 267, Clotrimazole] here?
A: The value was 12 (compounds for which there was clear down regulation at 5 μg/ml and 50 μg/ml).

Q: How did the “hTLR8 (inhibitory effect, antagonist score)” value turn out when CN1CCN(C(c2ccccc2)c2ccccc2)CC1.Cl [compound 510, Cyclizine hydrochloride] was run?
A: The value was “— (compounds for which there was no clear down regulation even at 50 μg/ml)”.

Q: How did the “hTLR8 (inhibitory effect, antagonist score)” value turn out when “Trifluoperazinedihydrochloride [compound 313]” was run?
A: Its value is 11 (compounds for which there was clear down regulation only at 50 μg/ml).

Q: How did the “hTLR8 (inhibitory effect, antagonist score)” value turn out when Cc1cc(OC(=O)C2C3CCCCC32)c(C(C)C)cc1C1(c2cc(C(C)C)c(OC(=O)C3C4CCCCC43)cc2C)OC(=O)c2ccccc21 (centres unmarked) [compound 974] was run?
A: The value was 11 (compounds for which there was clear down regulation only at 50 μg/ml).

Q: Which “hTLR8 (inhibitory effect, antagonist score)” value does the source give for CN(C)CCC=C1c2ccccc2CCc2ccccc21.Cl [compound 74, Amitryptilinehydrochloride] here?
A: The value was “— (compounds for which there was no clear down regulation even at 50 μg/ml)”.

Q: With CCOCCOC(=O)c1cc([N+](=O)[O-])cc2c1-c1c(cc([N+](=O)[O-])cc1[N+](=O)[O-])C2=C(C#N)C#N [compound 1241] as the molecule, how does the “hTLR8 (inhibitory effect, antagonist score)” value read?
A: The value was “— (compounds for which there was no clear down regulation even at 50 μg/ml)”.

Q: For O=C1c2ccccc2C(=O)c2c1ccc1c(=O)n(C3CCCCC3)[nH]c21 [compound 1015], which “hTLR8 (inhibitory effect, antagonist score)” value is on record?
A: The value was 11 (compounds for which there was clear down regulation only at 50 μg/ml).

Q: COC(=O)C1=CO[C@@H](C)[C@@H]2CN3CCc4c([nH]c5ccccc45)[C@@H]3C[C@H]12 [compound 593, Tetrahydroalstonine] was tested. Which “hTLR8 (inhibitory effect, antagonist score)” value did it give?
A: Its value is “— (compounds for which there was no clear down regulation even at 50 μg/ml)”.

Q: CCOC(=O)Oc1c(OC)cc(C(=O)O[C@@H]2C[C@@H]3CN4CCc5c([nH]c6cc(OC)ccc56)[C@H]4C[C@@H]3[C@H](C(=O)OC)[C@H]2OC)cc1OC [compound 564, Syrosingopine] was tested. Which “hTLR8 (inhibitory effect, antagonist score)” value did it give?
A: The value was 12 (compounds for which there was clear down regulation at 5 μg/ml and 50 μg/ml).

Q: For CC[C@]12CCCN3CCc4c(n(c5ccccc45)C(=O)C1)[C@@H]32 [compound 607, Eburnamonine], which “hTLR8 (inhibitory effect, antagonist score)” value is on record?
A: The value was “— (compounds for which there was no clear down regulation even at 50 μg/ml)”.

Q: With Cc1nccc2c1[nH]c1ccccc12 [compound 620, Harmane hydrochloride] as the molecule, how does the “hTLR8 (inhibitory effect, antagonist score)” value read?
A: Its value is “— (compounds for which there was no clear down regulation even at 50 μg/ml)”.

Q: COC(=O)c1cccc(C(O)(c2ccccc2)c2ccccc2)c1S(=O)(=O)C(C)(C)C [compound 1187] was tested. Which “hTLR8 (inhibitory effect, antagonist score)” value did it give?
A: Its value is 11 (compounds for which there was clear down regulation only at 50 μg/ml).

Q: For CCCCOC(=O)c1cc([N+](=O)[O-])cc2c1-c1cc(CO)c([NH+]([O-])O)cc1C2=C(C#N)C#N (centres unmarked) [compound 939], which “hTLR8 (inhibitory effect, antagonist score)” value is on record?
A: The value was “— (compounds for which there was no clear down regulation even at 50 μg/ml)”.

Q: Which “hTLR8 (inhibitory effect, antagonist score)” value does the source give for COC(=O)c1cccc2c1-c1ccccc1/C2=N/O [compound 904] here?
A: The value was 13 (compounds for which there was clear down regulation at 0.5 μg/ml, 5 μg/ml, and 50 μg/ml).

Q: Which “hTLR8 (inhibitory effect, antagonist score)” value does the source give for O=C1Nc2ccccc2Oc2ccc([N+](=O)[O-])cc21 [compound 1352] here?
A: Its value is “— (compounds for which there was no clear down regulation even at 50 μg/ml)”.

Q: How did the “hTLR8 (inhibitory effect, antagonist score)” value turn out when “Prochlorperazinedimaleate [compound 399]” was run?
A: Its value is 11 (compounds for which there was clear down regulation only at 50 μg/ml).

Q: For COCCCNC(=O)c1ccc2c(c1N)C(=O)c1ccccc1C2=O [compound 1337], which “hTLR8 (inhibitory effect, antagonist score)” value is on record?
A: Its value is 11 (compounds for which there was clear down regulation only at 50 μg/ml).

Q: How did the “hTLR8 (inhibitory effect, antagonist score)” value turn out when O=C(O)c1cccc2c1/C(=N/O)c1ccccc1-2 [compound 918] was run?
A: Its value is “— (compounds for which there was no clear down regulation even at 50 μg/ml)”.

Q: Which “hTLR8 (inhibitory effect, antagonist score)” value does the source give for COC(=O)[C@H]1[C@H]2C[C@@H]3c4[nH]c5cc(OC)ccc5c4CCN3C[C@H]2C[C@@H](OC(=O)c2cc(OC)c(OC)c(OC)c2)[C@@H]1OC [compound 875, Reserpine] here?
A: The value was “— (compounds for which there was no clear down regulation even at 50 μg/ml)”.

Q: For CC1CCN(C(=O)c2cccc3c2-c2ccccc2C3=O)CC1 [compound 1243], which “hTLR8 (inhibitory effect, antagonist score)” value is on record?
A: Its value is 11 (compounds for which there was clear down regulation only at 50 μg/ml).
